Structures are written as SMILES. Where a name gives a salt, the structure may show the parent alone.

Sequence of Btk enzyme (His-Btk) (Q06187 whole entry): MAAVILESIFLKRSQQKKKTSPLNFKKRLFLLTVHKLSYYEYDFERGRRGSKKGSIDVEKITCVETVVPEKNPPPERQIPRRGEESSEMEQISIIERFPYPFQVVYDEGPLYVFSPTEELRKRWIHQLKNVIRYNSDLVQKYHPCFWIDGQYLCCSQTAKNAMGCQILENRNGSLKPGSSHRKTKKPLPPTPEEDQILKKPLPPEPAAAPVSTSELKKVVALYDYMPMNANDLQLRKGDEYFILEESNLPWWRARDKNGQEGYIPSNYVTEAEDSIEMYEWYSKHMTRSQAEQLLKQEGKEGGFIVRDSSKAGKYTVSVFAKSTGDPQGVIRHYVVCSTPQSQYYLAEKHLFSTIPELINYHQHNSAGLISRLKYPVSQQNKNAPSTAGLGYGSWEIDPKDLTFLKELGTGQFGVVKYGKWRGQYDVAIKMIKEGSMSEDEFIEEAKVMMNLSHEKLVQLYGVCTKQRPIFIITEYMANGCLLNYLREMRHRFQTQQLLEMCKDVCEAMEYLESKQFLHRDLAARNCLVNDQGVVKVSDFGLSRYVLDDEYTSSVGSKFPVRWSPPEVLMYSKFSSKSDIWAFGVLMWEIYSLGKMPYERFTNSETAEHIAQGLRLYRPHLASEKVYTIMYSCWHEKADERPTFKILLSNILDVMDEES

The first assay concerns the target Btk enzyme (His-Btk) (Homo sapiens (Human), UniProt Q06187). The assay is described as follows: Btk enzyme activity, IMAP fluorescence polarization assay (Assay Method A).
Settings: not given
As a reminder, the EC50 is the concentration giving half of the maximal effect. Consider `CCN(CC)c1nc(-c2ccc(C(=O)Nc3cc(C(F)(F)F)ccn3)cc2)c2c(N)nccn12` [Example 216, 4-(8-amino-3-(diethylamino)imidazo[1,5-a]pyrazin-1-yl)-N-(4-(trifluoromethyl)pyridin-2-yl)benzamide], for which the 50% effective concentration (EC50) was 10 to 100 nM. For `COC1CN(c2nc(-c3ccc(C(=O)Nc4ccccn4)cc3)c3c(N)nccn23)C1` [Example 217, 4-(8-amino-3-(3-methoxyazetidin-1-yl)imidazo[1,5-a]pyrazin-1-yl)-N-(pyridin-2-yl)benzamide], the EC50 was in the range of 100 to 1000 nM.

`Nc1nccn2c(N3CCCC(C(=O)NCC4CC4)C3)nc(-c3ccc(C(=O)Nc4ccccn4)cc3)c12` (centres unmarked) [Example 225, 1-(8-amino-1-(4-(pyridin-2-ylcarbamoyl)phenyl)imidazo[1,5-a]pyrazin-3-yl)-N-(cyclopropylmethyl)-piperidine-3-carboxamide, TFA sat] displayed a concentration giving a half-maximal response (EC50) of 10 to 100 nM.

With `CC(C)(C)NC(=O)C1CCCN(c2nc(-c3ccc(C(=O)Nc4ccccn4)cc3)c3c(N)nccn23)C1` (centres unmarked) [Example 228, 1-(8-amino-1-(4-(pyridin-2-ylcarbamoyl)phenyl)imidazo[1,5-a]pyrazin-3-yl)-N-tert-butylpiperidine-3-carboxamide, TFA salt], the EC50 lay within 10 to 100 nM.

On to `Nc1nccn2c(N3CCCC(C(=O)N4CCOCC4)C3)nc(-c3ccc(C(=O)Nc4ccccn4)cc3)c12` (centres unmarked) [Example 229, 4-(8-amino-3-(3-(morpholine-4-carbonyl)piperidin-1-yl)imidazo[1,5-a]pyrazin-1-yl)-N-(pyridin-2-yl)benzamide, TFA salt], for which the concentration for a half-maximal effect (EC50) lay in the range of 10 to 100 nM. Still for that read-out and setting: under `CCN(CC)C(=O)C1CCCN(c2nc(-c3ccc(C(=O)Nc4ccccn4)cc3)c3c(N)nccn23)C1` (centres unmarked) [Example 230, 1-(8-amino-1-(4-(pyridin-2-ylcarbamoyl)phenyl)imidazo[1,5-a]pyrazin-3-yl)-N,N-diethylpiperidine-3-carboxamide, TFA salt] stands 10 to 100 nM.

The same assay, now with this note: read-out: EC50 Btk activity values - Assay Method A; IMAP-FP, 60 min pre-incubation, 5 μM ATP; class 100-1000 is given as ≧100 nM-<1 μM.
Take `CC1(C(=O)N[C@H]2CCCN(c3nc(-c4ccc(C(=O)Nc5cc(C(F)(F)F)ccn5)cc4)c4c(N)nccn34)C2)COC1` [Example 218, (S)-N-(1-(8-amino-1-(4-(4-(trifluoromethyl)pyridin-2-ylcarbamoyl)phenyl)imidazo [1,5-a]pyrazin-3-yl)piperidin-3-yl)-3-methyloxetane-3-carboxamide]: the EC50 is under 10 nM. `COCCC(=O)N[C@@H]1CCCN(c2nc(-c3ccc(C(=O)Nc4cc(C(F)(F)F)ccn4)cc3)c3c(N)nccn23)C1` [Example 219, (R)-4-(8-amino-3-(3-(3-methoxypropanamido)piperidin-1-yl)imidazo[1,5-a]pyrazin-1-yl)-N-(4-(trifluoromethyl)pyridin-2-yl)benzamide]: the EC50 was under 10 nM.

Turning to `Nc1nccn2c(N3CCC[C@@H](NC(=O)C4CC4)C3)nc(-c3ccc(C(=O)Nc4cc(C(F)(F)F)ccn4)cc3)c12` [Example 220, (R)-4-(8-amino-3-(3-(cyclopropanecarboxamido)piperidin-1-yl)imidazo[1,5-a]pyrazin-1-yl)-N-(4-(trifluoromethyl)pyridin-2-yl)benzamide], the EC50 is under 10 nM. `CCNC(=O)N[C@@H]1CCCN(c2nc(-c3ccc(C(=O)Nc4cc(C(F)(F)F)ccn4)cc3)c3c(N)nccn23)C1` [Example 221, (R)-4-(8-amino-3-(3-(3-ethylureido)piperidin-1-yl)imidazo[1,5-a]pyrazin-1-yl)-N-(4-(trifluoromethyl)pyridin-2-yl)benzamide]: the EC50 was under 10 nM.

Take `Nc1nccn2c(N3CCC[C@H](NC(=O)C4CC4)C3)nc(-c3ccc(C(=O)Nc4cc(C(F)(F)F)ccn4)cc3)c12` [Example 222, (S)-4-(8-amino-3-(3-(cyclopropanecarboxamido)piperidin-1-yl)imidazo[1,5-a]pyrazin-1-yl)-N-(4-(trifluoromethyl)pyridin-2-yl)benzamide]: the EC50 is under 10 nM. As to `Nc1nccn2c(N3CCC[C@H](NC(=O)C4CCC4)C3)nc(-c3ccc(C(=O)Nc4cc(C(F)(F)F)ccn4)cc3)c12` [Example 223, (S)-4-(8-amino-3-(3-(cyclobutanecarboxamido)piperidin-1-yl)imidazo[1,5-a]pyrazin-1-yl)-N-(4-(trifluoromethyl)pyridin-2-yl)benzamide], the EC50 was under 10 nM. The same measure, in the same setting: as for `CC(C)NC(=O)C1CCCN(c2nc(-c3ccc(C(=O)Nc4cc(C(F)(F)F)ccn4)cc3)c3c(N)nccn23)C1` (centres unmarked) [Example 224, 1-(8-amino-1-(4-(4-(trifluoromethyl)pyridin-2-ylcarbamoyl)phenyl)imidazo[1,5-a]pyrazin-3-yl)-N-isopropylpiperidine-3-carboxamide], the figure is under 10 nM. Consider `Nc1nccn2c(N3CCCC(C(=O)NC4CC(F)(F)C4)C3)nc(-c3ccc(C(=O)Nc4cc(C(F)(F)F)ccn4)cc3)c12` (centres unmarked) [Example 226, 1-(8-amino-1-(4-(4-(trifluoromethyl)pyridin-2-ylcarbamoyl)phenyl)imidazo[1,5-a]pyrazin-3-yl)-N-(3,3-difluorocyclobutyl)piperidine-3-carboxamide, TFA salt], for which the EC50 is under 10 nM.

For `Nc1nccn2c(N3CCCC(C(=O)NC[C@@H]4CCCO4)C3)nc(-c3ccc(C(=O)Nc4ccccn4)cc3)c12` (stereo partly drawn) [Example 227, 1-(8-amino-1-(4-(pyridin-2-ylcarbamoyl)phenyl)imidazo[1,5-a]pyrazin-3-yl)-N-(((S)-tetrahydrofuran-2-yl)methyl)piperidine-3-carboxamide, TFA salt], the EC50 was under 10 nM. Turning to `Nc1nccn2c(N3CCCC(C(=O)NC[C@@H]4CCCO4)C3)nc(-c3ccc(C(=O)Nc4cc(C(F)(F)F)ccn4)cc3)c12` (stereo partly drawn) [Example 231, 1-(8-amino-1-(4-(4-(trifluoromethyl)pyridin-2-ylcarbamoyl)phenyl)imidazo[1,5-a]pyrazin-3-yl)-N-(((S)-tetrahydrofuran-2-yl)methyl)piperidine-3-carboxamide, TFA salt], the EC50 was under 10 nM. Regarding `COCCNC(=O)C1CCCN(c2nc(-c3ccc(C(=O)Nc4cc(C(F)(F)F)ccn4)cc3)c3c(N)nccn23)C1` (centres unmarked) [Example 232, 1-(8-amino-1-(4-(4-(trifluoromethyl)pyridin-2-ylcarbamoyl)phenyl)imidazo[1,5-a]pyrazin-3-yl)-N-(2-methoxyethyl)piperidine-3-carboxamide, TFA salt], the concentration for a half-maximal effect (EC50) was under 10 nM. For the molecule `Nc1nccn2c(N3CCCC(C(=O)NCC4CC4)C3)nc(-c3ccc(C(=O)Nc4cc(C(F)(F)F)ccn4)cc3)c12` (centres unmarked) [Example 233, 1-(8-amino-1-(4-(4-(trifluoromethyl)pyridin-2-ylcarbamoyl)phenyl)imidazo[1,5-a]pyrazin-3-yl)-N-(cyclopropylmethyl)piperidine-3-carboxamide, TFA salt], the EC50 was under 10 nM. In the case of `Nc1nccn2c(N3CCCC(C(=O)N4CCOCC4)C3)nc(-c3ccc(C(=O)Nc4cc(C(F)(F)F)ccn4)cc3)c12` (centres unmarked) [Example 234, 4-(8-amino-3-(3-(morpholine-4-carbonyl)piperidin-1-yl)imidazo[1,5-a]pyrazin-1-yl)-N-(4-(trifluoromethyl)pyridin-2-yl)benzamide, TFA salt], the EC50 was under 10 nM. On the same count and under the same terms, as for `COC[C@H](C)NC(=O)C1CCCN(c2nc(-c3ccc(C(=O)Nc4ccccn4)cc3)c3c(N)nccn23)C1` (stereo partly drawn) [Example 235, 1-(8-amino-1-(4-(pyridin-2-ylcarbamoyl)phenyl)imidazo[1,5-a]pyrazin-3-yl)-N-((S)-1-methoxypropan-2-yl)piperidine-3-carboxamide, TFA salt], the figure is under 10 nM.

Source of the values: patent US9718828B2 (MERCK SHARP & DOHME CORP., priority 2011, dated 2017).
